Entries after “also recorded” stand apart in the source; their conditions may differ.
How the values were obtained:
pBpa MjTyrRS/tRNATyrCUA = target: T1, pBpa MjTyrRS/tRNATyrCUA (Methanocaldococcus jannaschii, UniProt Q57834, D158T/E107P/I159S/Q56R/V103L/Y32G); assay: Incorporation into protein in response to TAG codon with pBpa synthetase, SDS-PAGE; type: cell-based, Methanococcus jannaschii; details: E. coli, amino acid added to the media, pBpa synthetase (SEQ ID NO: 7)
T1 construct: expressed in transfected cells; host or cells: E. coli carrying pDULE-pBpa
Text: Incorporation of additional ^19F amino acids with p-benzoyl-phenylalanine (pBpa) synthetase. Using a synthetase known to selectively incorporate pBpa (SEQ ID NO: 7), other ^19F amino acids of similar shape and electrostatics may be incorporated site-specifically into proteins.
Analysis of incorporation of p-fluorobenzoylphenylalanine into protein response to a TAG stop codon in E. coli with evolved pBpa MjTyrRS/tRNA TyrCUA by SDS-PAGE.
(§1) To improve the incorporation efficiency of dfBpa, the active site of pBpa MjTyrRS was altered to better accommodate the slightly larger dfBpa amino acid. Amino acids in the active site (Ser159, Leu65) were reduced in size or reduced in polarity to better accept dfBpa.
(§2) Analysis of fluorinated pBpa-protein by SDS-PAGE.

HDH = assay: Photo crosslinking of protein upon ultraviolet irradiation, SDS-PAGE; details: amino acid incorporated in protein
Text: The amino acid pBpa in a protein may be used to determine the structural organization of the protein and conformational changes by initiating crosslinking with nearby peptides via externally provided ultraviolet irradiation. […] The time course of HDH-225pBpa and HDH-225-dfBpa during irradiation was studied by SDS-PAGE.

[1] = target: T2, modified pBpa MjTyrRS/tRNATyrCUA (Methanocaldococcus jannaschii, UniProt Q57834, D158T/E107P/I159A/L65V/Q56R/V103L/Y32G); assay: Incorporation into protein in response to TAG codon with modified pBpa synthetase (Ser159Ala, Leu65Val), SDS-PAGE; type: cell-based, Methanococcus jannaschii; details: E. coli, modified pBpa synthetase (SEQ ID NO: 8), Ser159Ala and Leu65Val
T2 construct: expressed in transfected cells; host or cells: E. coli
Text: as §1, §2

E. coli DH10B cells = details: in vivo NMR cell samples
Method: Labeled NTR was also monitored in vivo.
E. coli DH10B cells containing pDule-tfmPhe1 and pTrc-NTR-124TAG or pTrc-NTR-36TAG were grown in modified minimal media containing supplemented flavin at 10 μM and induced to produce protein with 1.0 mM IPTG at an OD of 0.8. […] Cells were harvested 18 hrs after induction by centrifugation and stored at −80° C. Cells (from 0.5 L of media) for in vivo NMR measurements were thawed on ice, resuspended in 50 mL of PBS buffer (10 mM NaH2PO4, 140 mM NaCl pH 7.8) at 0° C., and repelleted by centrifugation at 5000 g. The cells for in vivo NMR spectra shown for NTR-tfmPhe-36 and NTR-tfmPhe-124 were washed 3 times and 5 times respectively.
NMR data were collected using a Varian Unity INOVA 500 MHz spectrometer fitted with a 5 mm broadband probe. The proton coil was tuned to fluorine frequency (470.114 MHz). Standard decoupling parameters were used with a 100,000 Hz spectral width, 9 μs pulse length (approximately 45°), 2.00 s acquisition time, and 1.00 s relaxation delay. A 10 Hz line broadening was applied and all spectra were recorded at 25±0.2° C. All spectra were locked and referenced to an internal standard containing 0.2% solution of 4-fluorotoluene in toluene-d8 (set at −120.771 ppm referenced from trifluorotoluene at −65.000 ppm). […]

[2] = tested on: evolved tfmPhe MjTyrRS/tRNATyrCUA; assay: Incorporation into protein in response to TAG codon with tfmPhe synthetase, SDS-PAGE; type: cell-based, Methanococcus jannaschii; details: E. coli, amino acid added to the media
Text: The two top performing synthetases were subcloned into the pDule vector (pDule-tfmPhe1 and pDule-tfmPhe2) for further analysis of a protein containing tfmPhe. The medium copy pDule plasmid is designed to contain both the tRNA^TyrCUA and new synthetase allowing a standard high copy protein expression plasmid for use in production of tfmPhe containing protein.
Selection of tfmPhe specific tRNA-aminoacyl synthetase. A library of tRNA-aminoacyl synthetases was encoded on a kanamycin (Kn) resistant plasmid, pBK-JM-Lib, under control of the constitutive E. coli GlnRS promoter and terminator. The library was transformed by electroporation into DH10B E. coli containing the tetracycline (Tet) resistant positive selection plasmid, pREP2/YC-JYCUA. The positive selection plasmid encodes a mutant tRNA^TyrCUA, an amber disrupted chloramphenicol acetyltransferase, and an amber disrupted T7 RNA polymerase that drives the production of green fluorescent protein. The first positive selection was performed in the presence of 1 mM tfmPhe, 70 μg/mL chloramphenicol (Cm), 50 μg/mL Kn, and 25 μg/mL Tet in a modified GMML media at 37° C. with 250 rpm shaking until the OD was >1.0. Plasmid DNA was extracted and pBK-JM-Lib was separated from pREP2/YC-JYCUA by agarose gel electrophoresis. […]

T2 sequence (Q57834 whole entry Y32G/Q56R/L65V/V103L/E107P/D158T/I159A): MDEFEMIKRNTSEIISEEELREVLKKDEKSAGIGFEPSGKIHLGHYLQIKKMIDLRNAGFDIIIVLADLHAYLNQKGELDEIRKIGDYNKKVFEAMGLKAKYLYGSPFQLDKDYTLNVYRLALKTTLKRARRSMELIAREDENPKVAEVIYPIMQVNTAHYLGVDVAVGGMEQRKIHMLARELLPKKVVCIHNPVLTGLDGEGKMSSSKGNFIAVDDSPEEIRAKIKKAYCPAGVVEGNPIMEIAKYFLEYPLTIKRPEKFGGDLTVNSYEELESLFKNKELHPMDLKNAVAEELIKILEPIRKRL
T1 sequence (Q57834 whole entry Y32G/Q56R/V103L/E107P/D158T/I159S): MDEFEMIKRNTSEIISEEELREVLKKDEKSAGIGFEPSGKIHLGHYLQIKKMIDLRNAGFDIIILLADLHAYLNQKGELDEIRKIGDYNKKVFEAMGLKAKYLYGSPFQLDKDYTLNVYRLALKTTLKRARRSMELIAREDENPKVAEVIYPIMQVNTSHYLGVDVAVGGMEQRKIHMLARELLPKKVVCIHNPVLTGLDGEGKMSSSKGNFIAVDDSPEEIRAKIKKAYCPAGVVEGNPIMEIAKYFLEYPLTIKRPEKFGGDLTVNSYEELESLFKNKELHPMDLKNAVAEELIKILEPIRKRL

| SMILES | incorporation into protein in response to TAG codon (pBpa MjTyrRS/tRNATyrCUA) | crosslinking upon irradiation (HDH) | cell permeability (E. coli DH10B cells) | other results |
| --- | --- | --- | --- | --- |
| N[C@@H](Cc1ccc(C(=O)c2c(F)cccc2F)cc1)C(=O)O [compound 6, 2′,6′-difluoro-p-benzoylphenylalanine] | incorporated in the location coded by TAG; also recorded: less effectively than pBpa or 7 | shown to crosslink upon irradiation |  | incorporation into protein in response to TAG codon (pBpa MjTyrRS/tRNATyrCUA; listed as dfBpa): full length HDH was produced containing dfBpa; incorporation into protein in response to TAG codon ([1]; listed as dfBpa): high efficiency; also recorded: length HDH was produced containing dfBpa |
| O=C(N[C@@H](Cc1ccc(F)cc1)C(=O)O)c1ccccc1 [compound 7, p-fluorobenzoylphenylalanine] | incorporated in the location coded by TAG | shown to crosslink upon irradiation |  | incorporation into protein in response to TAG codon (pBpa MjTyrRS/tRNATyrCUA; listed as pfBpa): full length HDH was produced containing pfBpa |
| N[C@@H](Cc1ccc(C(=O)c2ccccc2)cc1)C(=O)O [pBpa, p-benzoyl-phenylalanine, reference compound] | full length HDH was produced containing pBpa |  |  | incorporation into protein in response to TAG codon [1]: high efficiency; also recorded: full length HDH was produced containing pBpa |
| O=C(O)c1cccnc1 [nicotinic acid] |  |  | poor cell permeability |  |
| Cc1ccc(C[C@H](N)C(=O)O)cc1F [compound 4, 4-methyl-3-fluorophenylalanine] |  |  |  | incorporation into protein in response to TAG codon [2]: incorporated in the location coded by TAG; also recorded: full length HDH was produced containing 4 |
| NC(=O)C1=CN([C@@H]2O[C@H](COP(=O)(O)OP(=O)(O)OC[C@H]3O[C@@H](n4cnc5c(N)ncnc54)[C@H](O)[C@@H]3O)[C@@H](O)[C@H]2O)C=CC1 [NADH, reduced nicotinamide adenine dinucleotide] |  |  | poor cell permeability |  |
